Results from the supplement of paper PMC10307832.

Columns and labels:
Test in all cases: relative viability (nuclei count vs DMSO), 5 days (fraction); higher = more cells survive
HCC-366 = test system: HCC-366
Summary of the method: (§1)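 Relative viability divides the nuclei count in treated wells by that in vehicle wells. Lung cancer cell lines were seeded in 1536-well plates, dosed by pin tool the next day, and fixed and stained after 5 days in one step with final 0.05% Triton X-100, 1% formaldehyde and 1 ug/ml Hoechst. Dosing was a single drug or a fixed anchor-drug dose plus five library-drug doses (not always all listed) in √10 steps, and values are medians of duplicate plates imaged at 4×.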

HCC-44 = test system: HCC-44
Summary of the method: as §1

NCI-H1648 = test system: NCI-H1648
Summary of the method: as §1

NCI-H522 = test system: NCI-H522
Summary of the method: as §1

NCI-H1437 = test system: NCI-H1437
Summary of the method: as §1

A549 = test system: A549
Summary of the method: as §1

IA-LM = test system: IA-LM
Summary of the method: as §1

With `CC1(C)CCC(c2ccc(Cl)cc2)=C(CN2CCN(c3ccc(C(=O)NS(=O)(=O)c4ccc(N[C@H](CCN5CCOCC5)CSc5ccccc5)c(S(=O)(=O)C(F)(F)F)c4)cc3)CC2)C1` [Navitoclax] + Nc1nc2[nH]cc(CCc3ccc(C(=O)N[C@@H](CCC(=O)O)C(=O)O)cc3)c2c(=O)[nH]1 [Pemetrexed] (partner 0.2 µM) the relative viability (HCC-366; first compound 0.005 µM) was 0.136, the relative viability (HCC-366; first compound 0.01581 µM) was 0.167 and the relative viability (HCC-366; first compound 0.1581 µM) was 0.175. For the same molecule, the relative viability (HCC-366; first compound 0.5 µM) was 0.145, the relative viability (HCC-44; first compound 0.005 µM) was 0.633 and the relative viability (HCC-44; first compound 0.01581 µM) was 0.65. For the same molecule, the relative viability (HCC-44; first compound 0.05 µM) was 0.625, the relative viability (HCC-44; first compound 0.1581 µM) was 0.603 and the relative viability (HCC-44; first compound 0.5 µM) was 0.558. For the same molecule, the relative viability (NCI-H1648; first compound 0.005 µM) was 0.868, the relative viability (NCI-H1648; first compound 0.01581 µM) was 0.747 and the relative viability (NCI-H1648; first compound 0.1581 µM) was 0.563. For the same molecule, the relative viability (NCI-H1648; first compound 0.5 µM) was 0.833, the relative viability (NCI-H522; first compound 0.005 µM) was 1.07 and the relative viability (NCI-H522; first compound 0.01581 µM) was 1.28. The relative viability (NCI-H522; first compound 0.05 µM) was 0.885, the relative viability (NCI-H522; first compound 0.1581 µM) was 1.11 and the relative viability (NCI-H522; first compound 0.5 µM) was 1.13. For the same molecule, the relative viability (NCI-H1437; first compound 0.005 µM) was 0.287, the relative viability (NCI-H1437; first compound 0.01581 µM) was 0.336 and the relative viability (NCI-H1437; first compound 0.05 µM) was 0.282. The relative viability (NCI-H1437; first compound 0.1581 µM) was 0.311 and the relative viability (NCI-H1437; first compound 0.5 µM) was 0.356.
`CC1(C)CCC(c2ccc(Cl)cc2)=C(CN2CCN(c3ccc(C(=O)NS(=O)(=O)c4ccc(N[C@H](CCN5CCOCC5)CSc5ccccc5)c(S(=O)(=O)C(F)(F)F)c4)cc3)CC2)C1` [Navitoclax] + Nc1ncn([C@H]2C[C@H](O)[C@@H](CO)O2)c(=O)n1 [Decitabine] (partner 2 µM) showed a relative viability (HCC-366; first compound 0.005 µM) of 0.34, a relative viability (HCC-366; first compound 0.01581 µM) of 0.4 and a relative viability (HCC-366; first compound 0.1581 µM) of 0.332. It also gave a relative viability (HCC-366; first compound 0.5 µM) of 0.365, a relative viability (A549; first compound 0.005 µM) of 0.252 and a relative viability (A549; first compound 0.01581 µM) of 0.249. For the same molecule, the relative viability (A549; first compound 0.05 µM) was 0.204, the relative viability (A549; first compound 0.1581 µM) was 0.271 and the relative viability (A549; first compound 0.5 µM) was 0.246. The relative viability (HCC-44; first compound 0.005 µM) was 0.921, the relative viability (HCC-44; first compound 0.01581 µM) was 0.867 and the relative viability (HCC-44; first compound 0.05 µM) was 0.903. The relative viability (HCC-44; first compound 0.1581 µM) was 0.861, the relative viability (HCC-44; first compound 0.5 µM) was 0.898 and the relative viability (NCI-H1648; first compound 0.005 µM) was 0.528. The relative viability (NCI-H1648; first compound 0.01581 µM) was 0.511, the relative viability (NCI-H1648; first compound 0.1581 µM) was 0.518 and the relative viability (NCI-H1648; first compound 0.5 µM) was 0.44. For the same molecule, the relative viability (NCI-H522; first compound 0.005 µM) was 0.685, the relative viability (NCI-H522; first compound 0.01581 µM) was 0.696 and the relative viability (NCI-H522; first compound 0.05 µM) was 0.699. It also gave a relative viability (NCI-H522; first compound 0.1581 µM) of 0.547, a relative viability (NCI-H522; first compound 0.5 µM) of 0.712 and a relative viability (NCI-H1437; first compound 0.005 µM) of 0.549. It also gave a relative viability (NCI-H1437; first compound 0.01581 µM) of 0.547, a relative viability (NCI-H1437; first compound 0.05 µM) of 0.619 and a relative viability (NCI-H1437; first compound 0.1581 µM) of 0.519. It also gave a relative viability (NCI-H1437; first compound 0.5 µM) of 0.581.
`CC1(C)CCC(c2ccc(Cl)cc2)=C(CN2CCN(c3ccc(C(=O)NS(=O)(=O)c4ccc(N[C@H](CCN5CCOCC5)CSc5ccccc5)c(S(=O)(=O)C(F)(F)F)c4)cc3)CC2)C1` [Navitoclax] + O=C(CCCCCCC(=O)Nc1ccccc1)NO [Vorinostat] (partner 1 µM) showed a relative viability (HCC-366; first compound 0.005 µM) of 0.302, a relative viability (HCC-366; first compound 0.01581 µM) of 0.356 and a relative viability (HCC-366; first compound 0.1581 µM) of 0.379. The relative viability (HCC-366; first compound 0.5 µM) was 0.306, the relative viability (HCC-44; first compound 0.005 µM) was 1.13 and the relative viability (HCC-44; first compound 0.01581 µM) was 1.07. It also gave a relative viability (HCC-44; first compound 0.05 µM) of 0.988, a relative viability (HCC-44; first compound 0.1581 µM) of 1.12 and a relative viability (HCC-44; first compound 0.5 µM) of 1.09. For the same molecule, the relative viability (NCI-H1648; first compound 0.005 µM) was 0.292, the relative viability (NCI-H1648; first compound 0.01581 µM) was 0.471 and the relative viability (NCI-H1648; first compound 0.1581 µM) was 0.412. The relative viability (NCI-H1648; first compound 0.5 µM) was 0.431, the relative viability (NCI-H522; first compound 0.005 µM) was 0.957 and the relative viability (NCI-H522; first compound 0.01581 µM) was 0.934. The relative viability (NCI-H522; first compound 0.05 µM) was 0.841, the relative viability (NCI-H522; first compound 0.1581 µM) was 0.878 and the relative viability (NCI-H522; first compound 0.5 µM) was 0.91. For the same molecule, the relative viability (NCI-H1437; first compound 0.005 µM) was 0.834, the relative viability (NCI-H1437; first compound 0.01581 µM) was 0.888 and the relative viability (NCI-H1437; first compound 0.05 µM) was 0.847. The relative viability (NCI-H1437; first compound 0.1581 µM) was 0.88, the relative viability (NCI-H1437; first compound 0.5 µM) was 0.808 and the relative viability (IA-LM; first compound 0.005 µM) was 0.884. It also gave a relative viability (IA-LM; first compound 0.01581 µM) of 0.937, a relative viability (IA-LM; first compound 0.05 µM) of 0.919 and a relative viability (IA-LM; first compound 0.1581 µM) of 0.875. It also gave a relative viability (IA-LM; first compound 0.5 µM) of 0.965.
